Assay results reported in patent US20240033237A1, “USE OF A-KETOGLUTARATE IN MANUFACTURE OF MEDICAMENT” (TONGJI UNIVERSITY, priority 2019, published 2024).

Test system: chondrocytes
Experiment: Amino acid content in chondrocytes upon IL-1β stimulation, LC-MS
Type: cell-based, mouse
Conditions: IL-1β treatment for 36 h, untreated 8740.24±584.31
Experimental: Mouse chondrocytes were obtained from 7-day-old C57BL/6 mice (Shanghai Slac laboratory animal Co., Ltd.), and the procedure was as follows: under aseptic surgical conditions, bilateral knee cartilages of C57 mice were carefully stripped and digested with 0.2% neutral collagenase (Serva, Germany) for 8 h; cell precipitates were obtained by centrifugation, and the cells were resuspended in modified Eagle medium (DMEM) (Gibco, USA) containing 10% FBS, inoculated in culture dishes, and cultured with high-sugar DMEM medium (containing 10% FBS, 100 U/mL penicillin and 100 mg/L streptomycin) at 37° C. in a 5% CO2 constant temperature incubator. The medium was changed for the first time at 48 h. […] The cells were collected by centrifugation and resuspended, and the concentration was adjusted for inoculation in culture dishes. The cells were subcultured by the above method, and the obtained cells were labeled as P1, P2, P3 generations, etc. […]
After being treated with IL-1β for 36 h, the chondrocytes were scraped off, and the changes of amino acid content in the chondrocytes were detected by LC-MS.

## IL-1β: interleukin-1β used to stimulate chondrocytes
  Gln content in chondrocytes: 330±150.32 ng/10^7
